Patent US20150216182A1, “COMPOSITIONS AND METHODS OF THE ATTRACTION AND REPULSION OF INSECTS” (Olfactor Laboratories, Inc., priority 2012, published 2015)
Where a name gives a salt, the structure may show the parent alone. Read-outs that look alike come from different tables or passages of the source.

Experiments:
larvae = experiment: larvicidal activity assay; assay type: in vivo; settings: for pest or weed control at 0.25 %: read-out: % Lethality with 0.25% compound conc.; for pest or weed control at 100 ppm: read-out: % Lethality at 100 ppm
Procedure: A 6-well plate (Corning Life Sciences, Tewksbury, Mass.) is used to test a compound's larvicidal activity. […] After a 24 hour exposure, the number of dead larvae are counted and recorded.
The results are presented in Table 17 as % lethality (the number of dead larvae divided by the total number of larvae).

female mosquitoes = experiment: whole plant or invertebrate; settings: 2 h; for mortality at 200 µg/mL: read-out: % mortality with 0.2 mg/ml; for mortality at 2000 µg/mL: read-out: % mortality with 2 mg/ml
[1] = system: bed bugs (Cimex lectularius); experiment: bed bug repellency assay; assay type: in vivo; settings: for % Rep (bed bug repellency): compound or combination on filter paper harborage, ten bed bugs
Procedure: Compounds and combinations of compounds of the present invention were assayed for their ability to repel bed bugs (Cimex lectularius) using a bed bug repellency assay. This assay takes advantage of the bed bug's natural tendency to seek harborage. Two petri dishes were obtained and the inner areas of each were sanded down (leaving the perimeter smooth.) Talc was applied on the perimeter and on the inside walls of the petri dishes with a small paint brush to prevent bed bugs from escaping. A cut off top portion of a solo bathroom cup was placed upside down in the center of one petri dish. A large plastic secondary container was gathered and a paper towel was laid down inside the bottom. The petri dish was then placed inside and ten bed bugs were placed inside the cut off portion of the solo cup. Next, two pieces of filter paper were cut down the middle to yield 4 equally sized halves. 3 pieces were placed inside a glass dish ([…]) and the remaining piece was placed in a separate dish. All 4 pieces were folded down the middle to create a “tent” or “harborage” when laid such that the folded crease faced up. 100 microliters of isopropyl alcohol was pipetted into 3 pieces of filter paper (all housed in the first glass dish.) In a separate 4 ml vial, 90 microliters of isopropyl alcohol was combined and vortexed with 10 microliters of the compound or compound combination being tested. 100 microliters of this solution [comprising a total of 100 mg of compound(s)] was pipetted onto the filter paper in the separate dish. All filter papers were then allowed to dry. Once dry, experiments were conducted first with two filter paper halves comprising only the isopropyl alcohol (control experiment) and then with the remaining filter paper halves [one with only isopropyl alcohol and one comprising the test compound(s).] Filter paper halves were placed on opposing sides of experimental petri dishes and bed bugs were allowed to move freely within the dishes for 5 minutes. Movement of bed bugs beneath each filter paper tent was recorded. […] In the Table, “Rep” refers to repellency and “Cmpd” refers to compound.

cpA neurons [2] = experiment: extracellular single-sensillum electrophysiology: activation of cpA neuronal activity; settings: for Class: Table 6, single compounds, increase over baseline cpA neuronal activity; for Comp B Class: component B tested individually; for Class B (activator class of the individual component): Table 15, single component alone, Mod Actv
cpA neurons [3] = experiment: extracellular single-sensillum electrophysiology: inhibition of CO2-responsive (cpA) neuronal activity; settings: for Class: Table 10, single compounds, percent reduction in cpA activity compared to baseline; for Class (inhibitor class of the individual component): Inh = inhibitor
[4] = 0.25% compound, 24 hour exposure, dead larvae / total larvae
[5] = 100 ppm compound, 24 hour exposure, dead larvae / total larvae
[6] = Table 13, single component alone
[7] = Table 16, single component alone

| SMILES | pest or weed control at 0.25 % (larvae; [4]) | pest or weed control at 100 ppm (larvae; [5]) | mortality at 200 µg/mL (female mosquitoes) | mortality at 2000 µg/mL (female mosquitoes) | % Rep (bed bug repellency) [1] | Class (cpA neurons [2]) | also measured |
| --- | --- | --- | --- | --- | --- | --- | --- |
| CCC(=O)OC/C=C/c1ccccc1 [OLI0105, trans-cinnamyl propionate] | 100% | 0% | 0% | 85% | 35% |  |  |
| O=C/C=C/c1ccccc1 [OLI0065, trans-cinnamaldehyde] |  |  | 0% | 0% | 100% | Mild Activator (mild activators yield an increase in neuronal activity that is between 20 and 40 spk/sec over baseline neuronal activity) | pest or weed control at 100 ppm (larvae; 24 h): 0%; pest or weed control at 0.25 % (larvae; 24 h): 100% |
| C=CCOC(=O)C=Cc1ccccc1 [OLI0104, allyl cinnamate] | 100% | 15% | 0% | 45% | 54% |  |  |
| COC(=O)/C=C/c1ccccc1 [OLI0114, methyl trans-cinnamate] | 100% | 0% | 0% | 100% | 70% |  |  |
| Cc1ccc(C=O)o1 [OLI0006, 5-methyl furfural] | 100% | 0% | 0% | 0% | 47% | Strong Activator (strong activators yield an increase in activity that is >60 spk/sec over baseline neuronal activity) |  |
| O=C(C=Cc1ccccc1)OCc1ccccc1 [OLI0120, benzyl cinnamate] | 0% | 0% | 0% | 0% | 21% |  |  |
| CC/C=C\CCOC(C)=O [OLI0073, cis-3-hexenyl acetate] | 95% | 0% | 0% | 0% |  |  | Class (cpA neurons [3]): Moderate Inhibitor (moderate inhibitors (reducing activity by 40-60%)); Class (inhibitor class of the individual component) (cpA neurons [3]; [6]): Mod |
| CCCCCCOC(=O)CCC [OLI0119, hexyl butyrate] | 15% | 0% | 0% | 0% | 59% |  |  |
| O=CCc1ccccc1 [OLI0028, phenylacetaldehyde] |  |  | 0% | 0% | 50% | Moderate Activator (Moderate activators yield an increase in neuronal activity that is between 40 and 60 spk/sec over baseline neuronal activity) | Comp B Class (cpA neurons [2]; Table 9): Mod |
| CC1OCCC1=O (centres unmarked) [OLI0004, 2-methyltetrahydrofuran-3-one] | 0% | 0% | 0% | 0% | 37% | Strong Activator (strong activators yield an increase in activity that is >60 spk/sec over baseline neuronal activity) |  |
| CCC(=O)OCCc1ccccc1 [OLI0076, Phenethyl propionate] | 100% | 0% | 0% | 100% |  |  | Class (cpA neurons [3]): Moderate Inhibitor (moderate inhibitors (reducing activity by 40-60%)); Class (inhibitor class of the individual component) (cpA neurons [3]; [6]): Mod; Class (inhibitor class of the individual component) (cpA neurons [3]; [7]): Mod; inhibitor class of single compound (cpA neurons [3]; single compound): moderate inhibitor (40-60% reduction in neuronal activity as compared to baseline activity of the neuron) |
| COC(=O)C=Cc1ccccc1 [OLI0113, methyl cinnamate] | 100% | 0% | 0% | 100% | 68% |  |  |
| CCOC(=O)c1ccco1 [OLI0009, ethyl 2-furoate] | 100% | 0% | 0% | 0% | 41% | Strong Activator (strong activators yield an increase in activity that is >60 spk/sec over baseline neuronal activity) |  |
| C=CCOC(=O)CCC [OLI0019, allyl butyrate] | 100% | 0% | 0% | 0% | 8% | Moderate Activator (Moderate activators yield an increase in neuronal activity that is between 40 and 60 spk/sec over baseline neuronal activity) | Comp B Class (cpA neurons [2]; Table 9): Mod; Class B (activator class of the individual component) (cpA neurons [2]): Mod |
| CCc1ccc(O)cc1 [OLI0005, 4-ethylphenol] |  |  | 0% | 100% | 100% | Strong Activator (strong activators yield an increase in activity that is >60 spk/sec over baseline neuronal activity) | pest or weed control at 100 ppm (larvae; 24 h): 100%; pest or weed control at 0.25 % (larvae; 24 h): 100% |
| CCCC(O)CC(=O)OCC (centres unmarked) [OLI0021, ethyl 3-hydroxyhexanoate] | 0% | 0% | 0% | 75% | 100% | Moderate Activator (Moderate activators yield an increase in neuronal activity that is between 40 and 60 spk/sec over baseline neuronal activity) | Comp A Class (cpA neurons [2]; Table 9, component A tested individually): Mod; Comp B Class (cpA neurons [2]; Table 9): Mod; Class B (activator class of the individual component) (cpA neurons [2]): Mod |
| CC(=O)CC/C=C(\C)CCC=C(C)C [OLI0089, Geranylacetone] |  |  |  |  |  |  | Class (cpA neurons [3]): Mild Inhibitor (mild inhibitors (reducing activity by 20-40%)); Class (inhibitor class of the individual component) (cpA neurons [3]; [6]): Mild |
| CCC(=O)OCC=Cc1ccccc1 [OLI0109, cinnamyl propionate] | 100% | 0% | 0% | 100% | 41% |  |  |
| c1ccc2[nH]ccc2c1 [OLI0052, indole] |  |  | 0% | 100% | 100% | Mild Activator (mild activators yield an increase in neuronal activity that is between 20 and 40 spk/sec over baseline neuronal activity) | pest or weed control at 100 ppm (larvae; 24 h): 100%; pest or weed control at 0.25 % (larvae; 24 h): 100% |
| CCCCCCCCO [OLI0080, 1-octanol] |  |  |  |  |  |  | Class (cpA neurons [3]): Mild Inhibitor (mild inhibitors (reducing activity by 20-40%)); Class (inhibitor class of the individual component) (cpA neurons [3]; [6]): Mild; Class (inhibitor class of the individual component) (cpA neurons [3]; [7]): Mild |
| O=CCc1ccccc1 [OLI0121] |  |  |  |  | 100% |  |  |
| CC(C)=CCC/C(C)=C/CO [geraniol] |  |  |  |  |  |  | ability to repel bed bugs ([1]; 100 microliters solution on filter paper tent, 5 minutes): surprisingly strong ability to repel bed bugs |
| COc1ccc(C=O)cc1OC [OLI0095, Veratraldehyde] |  |  |  |  |  |  | Class (cpA neurons [3]): Mild Inhibitor (mild inhibitors (reducing activity by 20-40%)); Class (inhibitor class of the individual component) (cpA neurons [3]; [6]): Mild |
| CCOC(=O)C=Cc1ccccc1 [OLI0110, ethyl cinnamate] | 100% | 0% | 0% | 100% | 59% |  |  |
| O=COCC=Cc1ccccc1 [OLI0107, cinnamyl formate] | 100% | 0% | 0% | 100% | 100% |  |  |
| CC1CCC(C(C)C)C(O)C1 (centres unmarked) [OLI0115, Menthol] |  |  | 0% | 0% | 60% |  | pest or weed control at 100 ppm (larvae; 24 h): 0%; pest or weed control at 0.25 % (larvae; 24 h): 100% |
| CC/C=C\CCOC(=O)CCC [OLI0083, cis-3-hexenyl butyrate] |  |  |  |  |  |  | Class (cpA neurons [3]): Mild Inhibitor (mild inhibitors (reducing activity by 20-40%)); Class (inhibitor class of the individual component) (cpA neurons [3]; [6]): Mild |
| COc1ncccc1C |  |  |  |  |  |  | effect on CO2-receptor activity (FIG. 1) (cpA neurons [3]; 1% concentration in paraffin oil): inhibitor |
